Source: patent publication US20220056018A1, “SREBP INHIBITORS COMPRISING A THIOPHENE CENTRAL RING” (Capulus Therapeutics, LLC, priority 2019, published 2022)

Key:
[1] = Stability in human liver microsomes; type: in vitro ADME; conditions: 37° C., NADPH
Summary of the method: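 Compound from a 100 μM working solution was preincubated 10 min at 37 °C with human liver microsomes (added at 3.33 mg/mL) in 100 mM potassium phosphate. Incubation then ran 60 min at 37 °C with NADPH (2.85 mM cofactor solution), alongside a no-cofactor 60-min control and a 0-min sample. Parent compound was quantified by LC-MS/MS after acetonitrile quench for half-life.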

[2] = Stability in mouse liver microsomes; type: in vitro ADME
Summary of the method: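 Mouse liver microsomes, run by the same procedure as for human microsomes: 100 μM working solution pre-incubated with microsomes in 100 mM potassium phosphate buffer for 10 min at 37° C, then incubated 60 min at 37° C with NADPH cofactor, plus a no-cofactor control. Remaining compound quantified by LC-MS/MS.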

SREBP = experiment: Reporter Screening Assay (SRE-luciferase reporter, HepG2); type: cell-based; conditions: Homo sapiens; SRE-luciferase reporter HepG2 cells, 24 hours, 0.01 uM to 10 uM; read-out: I: Reporter Screening Assay (Ave EC50 (nM))
Summary of the method: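 HepG2 SREBP reporter cells carrying an SRE-luciferase construct were serum-washed, then treated for 24 h at 37° C with compounds (0.01 uM to 10 uM) in phenol-free medium with varying FBS levels. Total luminescence was read after a 30 min incubation with luciferase substrate.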

percent of compound remaining after 60 min in human liver microsomes [1] | percent parent remaining after 60 min in liver microsomes [2] | EC50 (SREBP) | Structure (SMILES)
+++ (>60.1 = +++) | +++ (>60.1 = +++) | < 249 nM | CC(C)(O)Cc1cc(-c2csc(-c3ccc(NS(C)(=O)=O)cc3Cl)c2)ccn1 [Compound I-9004, N-(3-chloro-4-(4-(2-(2-hydroxy-2-methylpropyl)pyridin-4-yl)thiophen-2-yl)phenyl)methanesulfonamide]
++ (30.1-60 = ++) | +++ (>60.1 = +++) | < 249 nM | CC(C)(CO)c1cc(-c2csc(-c3ccc(NS(C)(=O)=O)cc3Cl)c2)ccn1 [Compound I-8909, N-(3-chloro-4-(4-(2-(1-hydroxy-2-methylpropan-2-yl)pyridin-4-yl)thiophen-2-yl)phenyl)methanesulfonamide]
+++ (>60.1 = +++) | +++ (>60.1 = +++) | < 249 nM | CS(=O)(=O)Nc1ccc(-c2cc(-c3ccnc4c3OCCO4)cs2)c(Cl)c1 [Compound I-9017, N-(3-chloro-4-(4-(2,3-dihydro-[1,4]dioxino[2,3-b]pyridin-8-yl)thiophen-2-yl)phenyl)methanesulfonamide]
